The text below walks through data of PMC11576293, “New series of 4,6-diaryl pyrimidines: facile synthesis and antiproliferative activity as dual EGFR/VEGFR-2 inhibitors” (Frontiers in Chemistry, 2024).

The test system of one experiment is NCI-H460. Put plainly: NCI-60 single-dose screen. In kind it is cell-based. The following applies: Homo sapiens, single dose 10 µM, '-' = no inhibition, read-out: % Growth Inhibition. The method in brief:
(§1)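 NCI Developmental Therapeutics Program screen across 60 human cancer cell lines from nine tumor types; compounds tested at a single dose of 10 μM.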
As a reminder, the inhibition is the percentage by which the read-out fell short of the control. On to `COc1ccc(-c2cc(-c3cccc(OC)c3)nc(SC)n2)cc1` [Compound 16, 6-(3-Methoxyphenyl)-4-(4-methoxyphenyl)-2-(methylthio)pyrimidine], for which the inhibition at 10 µM came out at 1.75%.

In a further experiment the test system is NCI-H522. Put plainly: NCI-60 single-dose screen. In kind it is cell-based. The settings on record: Homo sapiens, single dose 10 µM, '-' = no inhibition, read-out: % Growth Inhibition. The method in brief: as §1
For `COc1ccc(-c2cc(-c3cccc(OC)c3)nc(SC)n2)cc1` [Compound 16, 6-(3-Methoxyphenyl)-4-(4-methoxyphenyl)-2-(methylthio)pyrimidine], the inhibition at 10 µM is 14.1%.

Another experiment deals with NCI/ADR-RES. Kind of experiment: NCI-60 single-dose screen. The experiment is classed as cell-based. The settings on record: Homo sapiens, single dose 10 µM, '-' = no inhibition, read-out: % Growth Inhibition. An outline of the steps:
as §1
For `COc1ccc(-c2cc(-c3cccc(OC)c3)nc(SC)n2)cc1` [Compound 16, 6-(3-Methoxyphenyl)-4-(4-methoxyphenyl)-2-(methylthio)pyrimidine], the inhibition at 10 µM came out at 11.6%.

In the next experiment the test system is OVCAR-4. Put plainly: NCI-60 single-dose screen. In kind it is cell-based. The settings on record: Homo sapiens, single dose 10 µM, '-' = no inhibition, read-out: % Growth Inhibition. The method in brief: as §1
`COc1ccc(-c2cc(-c3cccc(OC)c3)nc(SC)n2)cc1` [Compound 16, 6-(3-Methoxyphenyl)-4-(4-methoxyphenyl)-2-(methylthio)pyrimidine]: the inhibition at 10 µM turned out to be 8.29%.

The test system of a further experiment is OVCAR-5. Put plainly: NCI-60 single-dose screen. The settings on record: Homo sapiens, single dose 10 µM, '-' = no inhibition, read-out: % Growth Inhibition. The experiment is classed as cell-based. An outline of the steps:
as §1
In the case of `COc1ccc(-c2cc(-c3cccc(OC)c3)nc(SC)n2)cc1` [Compound 16, 6-(3-Methoxyphenyl)-4-(4-methoxyphenyl)-2-(methylthio)pyrimidine], the inhibition at 10 µM was below 0%.

For a further experiment, the system named is OVCAR-8. Kind of experiment: NCI-60 single-dose screen. The experiment is classed as cell-based. The settings on record: Homo sapiens, single dose 10 µM, '-' = no inhibition, read-out: % Growth Inhibition. An outline of the steps:
as §1
On to `COc1ccc(-c2cc(-c3cccc(OC)c3)nc(SC)n2)cc1` [Compound 16, 6-(3-Methoxyphenyl)-4-(4-methoxyphenyl)-2-(methylthio)pyrimidine], for which the inhibition at 10 µM was found to be 6.48%.

Another experiment concerns PC-3. Put plainly: NCI-60 single-dose screen. The following applies: Homo sapiens, single dose 10 µM, '-' = no inhibition, read-out: % Growth Inhibition. The experiment is classed as cell-based. An outline of the steps: as §1
Turning to `COc1ccc(-c2cc(-c3cccc(OC)c3)nc(SC)n2)cc1` [Compound 16, 6-(3-Methoxyphenyl)-4-(4-methoxyphenyl)-2-(methylthio)pyrimidine], the inhibition at 10 µM came to 16.6%.

The test system of another experiment is RPMI-8226. Kind of experiment: NCI-60 single-dose screen. The experiment is classed as cell-based. The settings on record: Homo sapiens, single dose 10 µM, '-' = no inhibition, read-out: % Growth Inhibition. The method in brief:
as §1
With `COc1ccc(-c2cc(-c3cccc(OC)c3)nc(SC)n2)cc1` [Compound 16, 6-(3-Methoxyphenyl)-4-(4-methoxyphenyl)-2-(methylthio)pyrimidine], the inhibition at 10 µM was 3.81%.

A further experiment relates to RXF 393. Kind of experiment: NCI-60 single-dose screen. In kind it is cell-based. The settings on record: Homo sapiens, single dose 10 µM, '-' = no inhibition, read-out: % Growth Inhibition. The method in brief: as §1
For `COc1ccc(-c2cc(-c3cccc(OC)c3)nc(SC)n2)cc1` [Compound 16, 6-(3-Methoxyphenyl)-4-(4-methoxyphenyl)-2-(methylthio)pyrimidine], the inhibition at 10 µM came to 11.6%.

Another experiment deals with SF-539. Put plainly: NCI-60 single-dose screen. The experiment is classed as cell-based. The following applies: Homo sapiens, single dose 10 µM, '-' = no inhibition, read-out: % Growth Inhibition. An outline of the steps: as §1
For `COc1ccc(-c2cc(-c3cccc(OC)c3)nc(SC)n2)cc1` [Compound 16, 6-(3-Methoxyphenyl)-4-(4-methoxyphenyl)-2-(methylthio)pyrimidine], the inhibition at 10 µM is below 0%.

For a further experiment, the system named is SK-MEL-28. Put plainly: NCI-60 single-dose screen. In kind it is cell-based. The settings on record: Homo sapiens, single dose 10 µM, '-' = no inhibition, read-out: % Growth Inhibition. An outline of the steps: as §1
On to `COc1ccc(-c2cc(-c3cccc(OC)c3)nc(SC)n2)cc1` [Compound 16, 6-(3-Methoxyphenyl)-4-(4-methoxyphenyl)-2-(methylthio)pyrimidine], for which the inhibition at 10 µM was below 0%.

The next experiment relates to SK-MEL-2. Put plainly: NCI-60 single-dose screen. The experiment is classed as cell-based. The settings on record: Homo sapiens, single dose 10 µM, '-' = no inhibition, read-out: % Growth Inhibition. An outline of the steps: as §1
`COc1ccc(-c2cc(-c3cccc(OC)c3)nc(SC)n2)cc1` [Compound 16, 6-(3-Methoxyphenyl)-4-(4-methoxyphenyl)-2-(methylthio)pyrimidine]: the inhibition at 10 µM came out at 2.91%.

The next experiment relates to SK-MEL-5. Put plainly: NCI-60 single-dose screen. In kind it is cell-based. The settings on record: Homo sapiens, single dose 10 µM, '-' = no inhibition, read-out: % Growth Inhibition. An outline of the steps:
as §1
Consider `COc1ccc(-c2cc(-c3cccc(OC)c3)nc(SC)n2)cc1` [Compound 16, 6-(3-Methoxyphenyl)-4-(4-methoxyphenyl)-2-(methylthio)pyrimidine], for which the inhibition at 10 µM was 6.46%.

The test system of another experiment is SK-OV-3. Put plainly: NCI-60 single-dose screen. The experiment is classed as cell-based. The settings on record: Homo sapiens, single dose 10 µM, '-' = no inhibition, read-out: % Growth Inhibition. An outline of the steps: as §1
In the case of `COc1ccc(-c2cc(-c3cccc(OC)c3)nc(SC)n2)cc1` [Compound 16, 6-(3-Methoxyphenyl)-4-(4-methoxyphenyl)-2-(methylthio)pyrimidine], the inhibition at 10 µM turned out to be 13.7%.

The next experiment relates to SNB-19. Kind of experiment: NCI-60 single-dose screen. The following applies: Homo sapiens, single dose 10 µM, '-' = no inhibition, read-out: % Growth Inhibition. The experiment is classed as cell-based. An outline of the steps:
as §1
With `COc1ccc(-c2cc(-c3cccc(OC)c3)nc(SC)n2)cc1` [Compound 16, 6-(3-Methoxyphenyl)-4-(4-methoxyphenyl)-2-(methylthio)pyrimidine], the inhibition at 10 µM is below 0%.

For the next experiment, the system named is SNB-75. Kind of experiment: NCI-60 single-dose screen. The following applies: Homo sapiens, single dose 10 µM, '-' = no inhibition, read-out: % Growth Inhibition. In kind it is cell-based. The method in brief:
as §1
Consider `COc1ccc(-c2cc(-c3cccc(OC)c3)nc(SC)n2)cc1` [Compound 16, 6-(3-Methoxyphenyl)-4-(4-methoxyphenyl)-2-(methylthio)pyrimidine], for which the inhibition at 10 µM is below 0%.

In a further experiment the test system is SR. Put plainly: NCI-60 single-dose screen. The experiment is classed as cell-based. The settings on record: Homo sapiens, single dose 10 µM, '-' = no inhibition, read-out: % Growth Inhibition. An outline of the steps:
as §1
For `COc1ccc(-c2cc(-c3cccc(OC)c3)nc(SC)n2)cc1` [Compound 16, 6-(3-Methoxyphenyl)-4-(4-methoxyphenyl)-2-(methylthio)pyrimidine], the inhibition at 10 µM stood at 27.7%.

The next experiment concerns T-47D. Put plainly: NCI-60 single-dose screen. The experiment is classed as cell-based. The settings on record: Homo sapiens, T47D, single dose 10 µM, '-' = no inhibition, read-out: % Growth Inhibition. The method in brief:
as §1
In the case of `COc1ccc(-c2cc(-c3cccc(OC)c3)nc(SC)n2)cc1` [Compound 16, 6-(3-Methoxyphenyl)-4-(4-methoxyphenyl)-2-(methylthio)pyrimidine], the inhibition at 10 µM turned out to be 22.2%.

Another experiment deals with TK-10. Kind of experiment: NCI-60 single-dose screen. The following applies: Homo sapiens, single dose 10 µM, '-' = no inhibition, read-out: % Growth Inhibition. In kind it is cell-based. An outline of the steps: as §1
With `COc1ccc(-c2cc(-c3cccc(OC)c3)nc(SC)n2)cc1` [Compound 16, 6-(3-Methoxyphenyl)-4-(4-methoxyphenyl)-2-(methylthio)pyrimidine], the inhibition at 10 µM is below 0%.

The test system of the next experiment is U251. Put plainly: NCI-60 single-dose screen. In kind it is cell-based. The settings on record: Homo sapiens, U-251, single dose 10 µM, '-' = no inhibition, read-out: % Growth Inhibition. The method in brief:
as §1
For the molecule `COc1ccc(-c2cc(-c3cccc(OC)c3)nc(SC)n2)cc1` [Compound 16, 6-(3-Methoxyphenyl)-4-(4-methoxyphenyl)-2-(methylthio)pyrimidine], the inhibition at 10 µM was 10.7%.

The next experiment concerns UACC-257. Put plainly: NCI-60 single-dose screen. The experiment is classed as cell-based. The settings on record: Homo sapiens, single dose 10 µM, '-' = no inhibition, read-out: % Growth Inhibition. The method in brief:
as §1
For the molecule `COc1ccc(-c2cc(-c3cccc(OC)c3)nc(SC)n2)cc1` [Compound 16, 6-(3-Methoxyphenyl)-4-(4-methoxyphenyl)-2-(methylthio)pyrimidine], the inhibition at 10 µM was below 0%.

Another experiment has as its system UACC-62. Kind of experiment: NCI-60 single-dose screen. The experiment is classed as cell-based. The following applies: Homo sapiens, single dose 10 µM, '-' = no inhibition, read-out: % Growth Inhibition. An outline of the steps: as §1
As to `COc1ccc(-c2cc(-c3cccc(OC)c3)nc(SC)n2)cc1` [Compound 16, 6-(3-Methoxyphenyl)-4-(4-methoxyphenyl)-2-(methylthio)pyrimidine], the inhibition at 10 µM is 23.9%.

The test system of a further experiment is UO-31. Put plainly: NCI-60 single-dose screen. The experiment is classed as cell-based. The following applies: Homo sapiens, single dose 10 µM, '-' = no inhibition, read-out: % Growth Inhibition. An outline of the steps:
as §1
As for `COc1ccc(-c2cc(-c3cccc(OC)c3)nc(SC)n2)cc1` [Compound 16, 6-(3-Methoxyphenyl)-4-(4-methoxyphenyl)-2-(methylthio)pyrimidine], the inhibition at 10 µM is 20%.
